The experiment deals with monocotyledonous and dicotyledonous weed plants. Kind of experiment: Post-emergence greenhouse test, herbicidal action scored visually (weeds not split). The following applies: with Genapol X 150, X 200, O 200 or Sapogenat T130, T 200, T 300, T 400, T 500 at e.g. 50, 100, 300, 500 g/ha, vs no surfactant or low-EO surfactant (Genapol O 060, Sapogenat T 040). The experiment is classed as in vivo. The protocol:
Seeds or rhizome pieces of monocotyledonous and dicotyledonous weed plants were placed in sandy loamy soil in plastic pots, covered with soil and grown in the greenhouse under favorable growth conditions. Three weeks after sowing, the test plants were treated in the three-leaf stage. The compounds according to the invention which were formulated in the form of wettable powders or emulsion concentrates were sprayed onto the green plant parts at an application rate of 600 to 800 l of water/ha (converted), in various dosages. After the test plants had been left to stand in the greenhouse under optimum growth conditions for 3 to 4 weeks the effect of the preparations was scored visually by comparison with untreated controls.

Molecules are shown by their SMILES.

On to `CS(=O)(=O)c1ccc(C(=O)C2C(=O)CCCC2=O)c([N+](=O)[O-])c1` [Herbicide A1], for which the “action of the herbicide when combined with a high-EO surfactant” value (herbicide 200 g/ha) is “increased markedly”.
For `CCS(=O)(=O)c1ccc(C(=O)C2C(=O)CCCC2=O)c(Cl)c1C1=NOC(CC#N)C1` (stereo not shown) [Herbicide A4], under “herbicide 80 g/ha”, the “action of the herbicide when combined with a high-EO surfactant” value is “increased markedly”.
On the same count and under the same terms, then `CCOCC1CC(c2c(S(=O)(=O)CC)ccc(C(=O)C3C(=O)CCCC3=O)c2Cl)=NO1` (stereo not shown) [Herbicide A6], with “increased markedly”; and `CS(=O)(=O)c1ccc(C(=O)C2C(=O)CCCC2=O)c(Cl)c1COCC(F)(F)F` [Herbicide A9], with “increased markedly”.

The record behind these values is patent US6835695B2, “Herbicidal Compositions” (Aventis CropScience GmbH, priority 2000, dated 2004).
